These results are taken from patent US20260285903A1, “SYNTHESIZED BIOLOGICALLY ACTIVE COMPOUNDS AND METHODS OF MAKING AND USING” (Georgia State University Research Foundation, Inc., priority 2023, published 2026).

“Also recorded” adds a separate entry of the source. Where two headings read alike, the source gives them in different places.

Data set [1] can be described thus: Chemical stability at various pH / in acidic PBS (HPLC). It counts as physicochemical. The text has this: The main reason for failure in drug development is poor biopharmaceutical properties, which include low aqueous solubility, chemical instability.
(§1) The biopharmaceutical properties of the synthesized M13 (5-glutathione-6-shogaol) were characterized.

A short description of data set [2]: pKa by UV metric at pH 2 to pH 12. The class given is physicochemical.
Description: The pKa of a drug influences lipophilicity, solubility, protein binding, and permeability, which in turn directly affects pharmacokinetic (PK) characteristics such as absorption, distribution, metabolism, and excretion.
as §1

The subject of another data set is Tester strain TA98. The experiment in a line: Ames test (bacterial reverse mutation), strain TA98. The conditions noted are these: TA98, all tested concentrations. It counts as cell-based, Salmonella typhimurium. The method, then: (§2) The mutagenic potential of M13 was assessed using the Ames test. The Ames test, or bacterial reverse mutation test, introduced by Bruce Ames and his group in the early 1970s, is currently widely employed to assess the mutagenic potential of chemical compounds. In this biological assay, several strains of Salmonella ryphimurium carrying mutations in genes responsible for histidine synthesis are used, so these strains cannot produce this critical amino acid. […]
(§3) M13 at concentrations of […] and positive (NaN3; 2-nitrofluorene (NF) and 2-amonoanthracene) and negative (PBS) controls were tested on two tester strains; TA98 reverted from histidine dependence (auxotrophy) to histidine independence (prototrophy) by frameshift mutagens and tester TA100 reverted by mutagens that cause both frameshift and base pair substitution mutations. The colony numbers on the negative, positive control and M13 treated plates were determined by manual counting. The mean number of revertants per plate, the standard deviation, and the mutation factor (i.e., mean number of revertants on the test item plate/mean number of revertants on the vehicle plate) were calculated.
(§4) Next, the mutagenic potential of M13 using a Salmonella typhimurium reverse mutation assay were assessed (Ames test). […]

The subject of a further data set is tester TA100. As to the kind of experiment: Ames test (bacterial reverse mutation), strain TA100. The class given is cell-based, Salmonella typhimurium. The conditions noted are these: TA100, all tested concentrations. The method, then:
as §2, §3, §4

The target in the next data set is SPHK2 (Homo sapiens, UniProt Q9NRA0). The experiment in a line: Radiometric 33P kinase assay, 17 Lipid Kinase Panel. The conditions noted are these: 20 μM M13, 10 μM ATP; read-out: inhibition of enzyme activity relative to control. It counts as biochemical. The text has this:
(§5) It was hypothesized that M13 may target kinases to reduce the inflammatory response. Determination and improvement of the selectivity of a compound by screening a large part of the kinome are of pivotal importance in the discovery of M13 signaling pathways for its anti-inflammatory activities. Radiometric assays were used based on the transfer of ^33P-labeled phosphate from ATP to the kinase substrates found in the 376 Wild Type Kinase Panel and 17 Lipid Kinase Panel (Reaction Biology) and a broad kinase selectivity screen for the inhibitory activity of M13 was performed. Briefly, radiometric assays are based on the transfer of 10 μM ^33P-labelled phosphate from ATP to the kinase substrate. […] FIGS. 2A and 2B show the targeted inhibitor effects of M13 on lipid kinases (FIG. 2A) and protein kinases (FIG. 2B).

The next data set deals with CDK6 (Homo sapiens, UniProt Q00534). As to the kind of experiment: Radiometric 33P kinase assay, 376 Wild Type Kinase Panel. It counts as biochemical. Particulars: 20 μM M13, 10 μM ATP; read-out: inhibition of enzyme activity relative to control.
Chain of CDK6 (Q00534 whole entry): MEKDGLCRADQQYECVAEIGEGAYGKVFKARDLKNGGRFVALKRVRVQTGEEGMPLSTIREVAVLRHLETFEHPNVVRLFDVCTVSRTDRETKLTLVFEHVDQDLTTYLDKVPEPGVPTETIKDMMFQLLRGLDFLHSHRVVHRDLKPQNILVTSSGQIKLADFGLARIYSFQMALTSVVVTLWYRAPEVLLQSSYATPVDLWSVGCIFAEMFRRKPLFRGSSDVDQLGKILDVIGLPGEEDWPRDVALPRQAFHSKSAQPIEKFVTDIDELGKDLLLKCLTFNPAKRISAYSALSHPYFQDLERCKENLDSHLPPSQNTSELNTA
Description: as §5

Another data set concerns the target RIPK4 (Homo sapiens, UniProt P57078). The data set is described as above. Particulars: 20 μM M13, 10 μM ATP; read-out: inhibition of enzyme activity relative to control. It counts as biochemical.
Description: as §5

The target of another data set is TRKB (Homo sapiens, UniProt Q16620). The data set is described as above. The class given is biochemical. The conditions noted are these: 20 μM M13, 10 μM ATP; read-out: inhibition of enzyme activity relative to control.
Chain of TRKB (Q16620 32-822): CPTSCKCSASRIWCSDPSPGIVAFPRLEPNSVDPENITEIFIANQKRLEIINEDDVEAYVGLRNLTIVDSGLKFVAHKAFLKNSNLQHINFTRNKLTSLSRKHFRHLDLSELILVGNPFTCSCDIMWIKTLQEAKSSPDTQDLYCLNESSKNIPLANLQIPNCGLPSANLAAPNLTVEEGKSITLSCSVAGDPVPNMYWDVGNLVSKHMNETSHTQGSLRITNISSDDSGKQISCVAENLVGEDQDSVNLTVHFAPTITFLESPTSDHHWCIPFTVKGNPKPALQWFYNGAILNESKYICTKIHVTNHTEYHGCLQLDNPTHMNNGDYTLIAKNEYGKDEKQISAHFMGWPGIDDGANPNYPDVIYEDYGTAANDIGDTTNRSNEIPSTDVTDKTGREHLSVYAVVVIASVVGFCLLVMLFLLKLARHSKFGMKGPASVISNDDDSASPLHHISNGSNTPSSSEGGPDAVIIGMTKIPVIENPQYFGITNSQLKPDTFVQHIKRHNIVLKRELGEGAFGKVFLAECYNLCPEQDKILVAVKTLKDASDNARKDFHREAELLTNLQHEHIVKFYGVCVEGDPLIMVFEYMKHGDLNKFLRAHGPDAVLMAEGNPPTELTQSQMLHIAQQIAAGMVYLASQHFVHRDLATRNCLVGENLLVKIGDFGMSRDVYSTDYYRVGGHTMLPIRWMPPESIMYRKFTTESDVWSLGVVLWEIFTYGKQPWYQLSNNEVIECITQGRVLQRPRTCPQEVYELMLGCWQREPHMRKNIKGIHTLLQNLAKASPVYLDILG
Description: as §5

A further data set deals with SARS-CoV-2. The experiment in a line: SARS-CoV-2 infectivity IF assay (Nucleocapsid staining) in Vero cells. The class given is cell-based. Particulars: Vero cells pre-incubated 60 minutes prior to infection, 24 hours, read-out: EC50 antiviral activity against SARS-CoV-2. The protocol:
Cells were seeded in complete media at 8000 cells/100 μl/well in four plates: two for the cytotoxicity assay and two for the infectivity assay. After seeding, the plates were incubated at room temperature for 5 minutes for even distribution, and then at 37° C., 5% CO2 until the following day.
Formulations were prepared at twice the final concentration, and they were diluted to the final desired concentration by an equal volume of virus or media. The initial amounts weighted and the volume in which these were resuspended are recorded.
The prepared stocks (0.5 mg/ml) were diluted in 800 μl of infection media to twice the final drug concentration (200 μM). […]
Residual formaldehyde was quenched with 50 mM Ammonium Chloride, after which cells were permeabilized (0.1% Triton X 100) and stained with an antibody recognizing SARS-CoV2 Nucleocapsid protein (Thermo Fisher MA536271). The primary antibody was detected with an Alexa-488 conjugate secondary antibody (Life Technologies, A21207), and nuclei were stained with Hoechst. Images were acquired on a Cell-Insight CX5 high content platform (Thermo Scientific) using a 4× objective, and percentage infection calculated using CellInsight CX5 software (infected cells/total cells×100).
Normalized percentages of inhibition were calculated using the following formula: […]

In data set [3] the test system is cell cycle control/phosphorylation proteins. As to the kind of experiment: Cell Cycle Control Phospho Antibody Array on Caco-2/BBe cell lysates. It counts as cell-based, human. Particulars: 24 hours. The method, then: The mechanism by which M13 exerts its anti-cancer effects was explored. Cell lysates of Caco-2/BBe cells incubated for 24 hours with free M13, NL, or M13-NL were hybridized on cancer-related protein array membranes (Proteome Profiler™ Human XL Oncology Array), and cell cycle control/phosphorylation profiling protein antibody microarray slides (Cell Cycle Control Phospho Antibody Array).

In data set [4] the test system is lung cancer cells (H-1299). Particulars: cited from earlier work.
For data set [5], the system named is normal lung cells (IMR-90). Particulars: cited from earlier work.

Chain of SPHK2 (Q9NRA0 whole entry): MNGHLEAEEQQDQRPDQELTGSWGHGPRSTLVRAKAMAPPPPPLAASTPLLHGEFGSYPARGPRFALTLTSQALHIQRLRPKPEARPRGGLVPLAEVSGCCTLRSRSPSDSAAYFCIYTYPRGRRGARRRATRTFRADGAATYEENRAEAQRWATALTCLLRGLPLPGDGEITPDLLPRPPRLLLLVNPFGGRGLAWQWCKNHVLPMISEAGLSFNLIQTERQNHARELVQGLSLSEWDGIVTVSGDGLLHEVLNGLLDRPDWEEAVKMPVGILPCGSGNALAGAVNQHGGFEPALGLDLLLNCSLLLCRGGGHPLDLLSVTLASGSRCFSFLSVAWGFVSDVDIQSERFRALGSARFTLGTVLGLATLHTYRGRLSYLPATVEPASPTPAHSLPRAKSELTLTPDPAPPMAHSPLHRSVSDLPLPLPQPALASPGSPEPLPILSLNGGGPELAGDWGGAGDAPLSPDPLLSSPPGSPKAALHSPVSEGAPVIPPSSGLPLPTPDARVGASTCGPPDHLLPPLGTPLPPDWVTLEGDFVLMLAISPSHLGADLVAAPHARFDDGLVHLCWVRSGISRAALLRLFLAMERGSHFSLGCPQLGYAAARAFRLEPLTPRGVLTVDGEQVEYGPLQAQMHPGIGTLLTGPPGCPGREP
Chain of RIPK4 (P57078 whole entry): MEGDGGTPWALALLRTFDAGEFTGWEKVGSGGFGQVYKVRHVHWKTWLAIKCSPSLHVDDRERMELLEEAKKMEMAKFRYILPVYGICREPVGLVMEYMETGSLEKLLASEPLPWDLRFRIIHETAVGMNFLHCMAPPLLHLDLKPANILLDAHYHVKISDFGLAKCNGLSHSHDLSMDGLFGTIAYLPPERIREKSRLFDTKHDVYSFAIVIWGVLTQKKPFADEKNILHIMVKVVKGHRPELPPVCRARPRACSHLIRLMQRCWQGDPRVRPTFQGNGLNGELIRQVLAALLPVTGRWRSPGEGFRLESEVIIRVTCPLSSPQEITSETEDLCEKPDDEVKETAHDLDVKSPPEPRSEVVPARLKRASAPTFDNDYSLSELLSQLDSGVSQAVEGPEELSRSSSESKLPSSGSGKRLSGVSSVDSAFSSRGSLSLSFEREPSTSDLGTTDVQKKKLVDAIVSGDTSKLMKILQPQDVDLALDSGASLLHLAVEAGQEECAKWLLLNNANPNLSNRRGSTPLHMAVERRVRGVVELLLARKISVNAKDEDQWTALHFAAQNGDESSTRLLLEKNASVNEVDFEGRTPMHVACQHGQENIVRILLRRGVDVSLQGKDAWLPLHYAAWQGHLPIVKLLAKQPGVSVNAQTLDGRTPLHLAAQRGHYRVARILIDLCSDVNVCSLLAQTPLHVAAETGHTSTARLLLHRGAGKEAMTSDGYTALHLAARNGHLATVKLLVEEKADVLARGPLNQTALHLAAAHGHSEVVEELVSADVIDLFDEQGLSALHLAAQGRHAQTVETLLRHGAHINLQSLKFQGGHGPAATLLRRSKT

`CCCCCC(CC(=O)CCc1ccc(O)c(OC)c1)SCC(NC(=O)CCC(N)C(=O)O)C(=O)NCC(=O)O` (stereo not shown) [M13, 5-glutathione-6-shogaol]: the “relative content of M13 before and after incubation (HPLC)” value in data set [1] (37° C., 2 h, acidic PBS (pH=5.0 or 3.0)) was “consistent before and after incubation”. In addition, the “stability at various pH levels” value in [1] (pH 2 to pH 10) is recorded as “very stable”. The figures for the pKa in [2] (read-out: pKa1), in [2] (read-out: pKa2) and in [2] (read-out: pKa3) were 3.24, 9.12 and 10.4, respectively. For the same molecule, the revertant colony numbers result in the data set with Tester strain TA98 and in the data set on tester TA100 was “did not demonstrate an increase in revertant colony numbers; also recorded: did not increase the number of revertant colonies” throughout. The inhibition at 20 µM on SPHK2, on CDK6, on RIPK4 and on TRKB was 30 to 45% in each case. The EC50 in the data set on SARS-CoV-2 (Severe acute respiratory syndrome coronavirus 2, Vero) is around 36 µM; with SARS-CoV-2, 35.8 µM. Further, in data set [3], the “CDC25A and phosphorylated CDC25A (p-CDC25A) vs control and NL groups” value is “down-regulated”. Besides, the bioactivity result in [4] was “exhibited bioactivity”. Moreover, the toxicity entry in data set [5] was “low toxicity”.
